Source: PMC5963640 (Journal of Ocular Pharmacology and Therapeutics, 2018)
Read-outs that look alike come from different tables or passages of the source. Blank lines part the entries; values can stand above or below the compound they belong to.

How the values were obtained:
human donor eyes = details: perfused for 3 h; cited from earlier work
mouse eyes = details: eyes perfused ∼1 h, cited from earlier work
[1] = target: T1, protein kinase C-theta (PKC-theta) (Homo sapiens, UniProt Q04759); assay: Kinase-Glo luminescent protein kinase assay, PKC-theta; assay type: biochemical; details: average of ≥3 replicate experiments; read-out: PKCT Ki
T1 construct: purchased Invitrogen/Life Technologies
T1 sequence (Q04759 whole entry): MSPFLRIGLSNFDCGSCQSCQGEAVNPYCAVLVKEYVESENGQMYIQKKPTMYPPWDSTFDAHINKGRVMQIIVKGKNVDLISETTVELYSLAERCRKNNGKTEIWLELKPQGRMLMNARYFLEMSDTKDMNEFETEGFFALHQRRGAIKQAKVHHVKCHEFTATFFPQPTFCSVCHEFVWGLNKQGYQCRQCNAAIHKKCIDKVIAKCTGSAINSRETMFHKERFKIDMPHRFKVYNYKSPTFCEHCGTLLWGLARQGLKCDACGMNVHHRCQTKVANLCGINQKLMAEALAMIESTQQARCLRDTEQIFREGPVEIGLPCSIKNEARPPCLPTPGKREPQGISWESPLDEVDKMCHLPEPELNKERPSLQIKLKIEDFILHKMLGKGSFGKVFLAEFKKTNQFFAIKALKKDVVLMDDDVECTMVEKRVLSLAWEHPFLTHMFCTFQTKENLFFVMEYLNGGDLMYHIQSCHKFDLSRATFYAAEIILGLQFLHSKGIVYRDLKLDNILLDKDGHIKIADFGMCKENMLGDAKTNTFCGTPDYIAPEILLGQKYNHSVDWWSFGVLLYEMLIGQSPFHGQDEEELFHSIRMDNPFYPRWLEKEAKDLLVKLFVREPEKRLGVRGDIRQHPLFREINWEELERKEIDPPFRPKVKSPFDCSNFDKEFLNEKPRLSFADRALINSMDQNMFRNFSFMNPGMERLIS

ROCK1 = target: T2, ROCK1 (Homo sapiens, UniProt Q13464); assay: Kinase-Glo luminescent protein kinase assay, ROCK1; assay type: biochemical; details: ROCK1 and ROCK2
T2 construct: purchased Invitrogen/Life Technologies
T2 sequence (Q13464 whole entry): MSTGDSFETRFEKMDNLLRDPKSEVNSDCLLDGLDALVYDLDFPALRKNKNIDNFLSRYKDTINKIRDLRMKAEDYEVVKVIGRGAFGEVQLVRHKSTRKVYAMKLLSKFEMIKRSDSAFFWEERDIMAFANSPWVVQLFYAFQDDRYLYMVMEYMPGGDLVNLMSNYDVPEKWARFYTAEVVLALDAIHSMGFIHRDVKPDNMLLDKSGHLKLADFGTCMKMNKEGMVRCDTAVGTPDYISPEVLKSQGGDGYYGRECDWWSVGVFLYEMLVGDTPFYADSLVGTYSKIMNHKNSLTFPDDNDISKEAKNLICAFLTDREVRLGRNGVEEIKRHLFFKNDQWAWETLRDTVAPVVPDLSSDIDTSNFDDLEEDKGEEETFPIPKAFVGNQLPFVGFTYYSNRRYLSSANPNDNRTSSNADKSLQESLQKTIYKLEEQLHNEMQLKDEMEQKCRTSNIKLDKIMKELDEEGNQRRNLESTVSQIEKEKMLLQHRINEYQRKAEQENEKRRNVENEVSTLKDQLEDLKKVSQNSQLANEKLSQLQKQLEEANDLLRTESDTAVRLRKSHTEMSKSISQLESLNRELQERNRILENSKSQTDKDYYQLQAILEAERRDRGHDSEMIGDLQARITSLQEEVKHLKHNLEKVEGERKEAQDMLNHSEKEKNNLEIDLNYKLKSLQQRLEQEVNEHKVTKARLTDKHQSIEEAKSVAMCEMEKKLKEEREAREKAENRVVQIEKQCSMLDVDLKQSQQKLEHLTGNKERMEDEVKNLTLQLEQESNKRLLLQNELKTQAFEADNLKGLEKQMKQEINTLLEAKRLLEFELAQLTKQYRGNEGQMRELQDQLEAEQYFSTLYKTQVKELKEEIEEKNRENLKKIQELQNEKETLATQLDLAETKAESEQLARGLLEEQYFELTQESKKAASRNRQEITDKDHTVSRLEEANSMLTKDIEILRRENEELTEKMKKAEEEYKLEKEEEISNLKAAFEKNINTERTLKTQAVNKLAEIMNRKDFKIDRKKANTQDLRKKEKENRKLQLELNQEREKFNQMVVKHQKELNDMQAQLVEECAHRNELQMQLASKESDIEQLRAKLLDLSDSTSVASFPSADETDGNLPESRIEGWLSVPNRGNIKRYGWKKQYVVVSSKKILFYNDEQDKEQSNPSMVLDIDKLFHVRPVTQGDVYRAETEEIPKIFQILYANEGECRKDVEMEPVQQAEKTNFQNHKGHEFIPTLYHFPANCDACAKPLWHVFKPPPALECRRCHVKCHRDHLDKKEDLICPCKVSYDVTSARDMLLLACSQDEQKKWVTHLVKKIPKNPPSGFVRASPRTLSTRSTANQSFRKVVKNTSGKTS

[2] = test system: primary porcine TM (PTM) cells; assay: Disruption of actin stress fibers, high-content screening; assay type: cell-based; details: for IC50: Sus scrofa, 6 h incubation, read-out: PTM IC50 (disruption of actin stress fibers)
[3] = target: T3, myotonic dystrophy kinase-related CDC42-binding kinase alpha (MRCKA) (Homo sapiens, UniProt Q5VT25); assay: Kinase-Glo luminescent protein kinase assay, MRCKA; assay type: biochemical; details: average of ≥3 replicate experiments
T3 construct: purchased Upstate
T3 sequence (Q5VT25 whole entry): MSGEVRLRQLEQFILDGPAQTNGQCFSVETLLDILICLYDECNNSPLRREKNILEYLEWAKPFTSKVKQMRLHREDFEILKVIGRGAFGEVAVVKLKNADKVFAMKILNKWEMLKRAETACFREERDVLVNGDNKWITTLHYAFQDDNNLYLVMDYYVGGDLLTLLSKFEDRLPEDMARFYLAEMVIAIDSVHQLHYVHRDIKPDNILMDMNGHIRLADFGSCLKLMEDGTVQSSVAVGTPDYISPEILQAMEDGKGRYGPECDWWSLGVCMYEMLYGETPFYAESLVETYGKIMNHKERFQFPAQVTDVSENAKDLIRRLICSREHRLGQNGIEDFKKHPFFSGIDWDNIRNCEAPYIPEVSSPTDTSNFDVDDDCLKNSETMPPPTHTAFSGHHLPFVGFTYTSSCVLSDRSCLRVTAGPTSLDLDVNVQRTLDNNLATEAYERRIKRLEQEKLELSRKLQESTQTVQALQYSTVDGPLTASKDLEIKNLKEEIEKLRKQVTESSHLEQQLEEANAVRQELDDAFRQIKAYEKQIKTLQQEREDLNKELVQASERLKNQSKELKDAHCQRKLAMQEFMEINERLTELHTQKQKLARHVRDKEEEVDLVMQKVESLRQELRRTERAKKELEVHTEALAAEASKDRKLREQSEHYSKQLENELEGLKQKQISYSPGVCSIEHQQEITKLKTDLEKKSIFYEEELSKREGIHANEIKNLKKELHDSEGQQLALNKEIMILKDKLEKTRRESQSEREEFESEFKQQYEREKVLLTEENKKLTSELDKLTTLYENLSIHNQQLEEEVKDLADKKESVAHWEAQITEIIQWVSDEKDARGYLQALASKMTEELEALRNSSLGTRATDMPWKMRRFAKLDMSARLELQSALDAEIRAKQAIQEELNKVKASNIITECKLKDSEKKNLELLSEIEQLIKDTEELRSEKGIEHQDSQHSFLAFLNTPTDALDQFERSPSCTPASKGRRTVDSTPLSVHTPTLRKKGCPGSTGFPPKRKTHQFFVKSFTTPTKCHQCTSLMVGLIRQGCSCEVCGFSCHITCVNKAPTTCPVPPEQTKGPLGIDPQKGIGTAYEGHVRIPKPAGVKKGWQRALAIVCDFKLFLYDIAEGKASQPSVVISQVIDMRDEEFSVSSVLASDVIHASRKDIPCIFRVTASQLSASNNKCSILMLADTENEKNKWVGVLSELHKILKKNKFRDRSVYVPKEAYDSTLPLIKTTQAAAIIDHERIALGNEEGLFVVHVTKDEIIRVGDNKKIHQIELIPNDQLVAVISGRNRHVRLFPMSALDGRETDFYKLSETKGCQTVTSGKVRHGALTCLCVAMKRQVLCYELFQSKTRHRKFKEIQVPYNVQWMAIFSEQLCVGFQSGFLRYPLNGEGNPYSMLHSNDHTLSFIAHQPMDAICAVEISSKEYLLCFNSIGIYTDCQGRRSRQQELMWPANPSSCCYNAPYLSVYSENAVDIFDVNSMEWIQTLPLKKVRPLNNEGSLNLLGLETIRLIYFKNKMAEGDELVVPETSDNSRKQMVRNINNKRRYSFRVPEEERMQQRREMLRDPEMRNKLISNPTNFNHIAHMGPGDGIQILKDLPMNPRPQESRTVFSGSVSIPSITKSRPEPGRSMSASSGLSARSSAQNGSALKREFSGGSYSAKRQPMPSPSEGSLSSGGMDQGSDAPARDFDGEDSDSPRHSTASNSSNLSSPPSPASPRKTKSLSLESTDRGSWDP

[4] = test system: transformed human TM (HTM) cells (TM-1); assay: Disruption of focal adhesions, high-content screening; assay type: cell-based; details: 6 h incubation, read-out: HTM IC50 (disruption of focal adhesions)
[5] = target: T4, calcium/calmodulin-dependent protein kinase II Alpha (CAMK2A) (Homo sapiens, UniProt Q9UQM7); assay: Kinase-Glo luminescent protein kinase assay, CAMK2A; assay type: biochemical; details: average of ≥3 replicate experiments; read-out: CAM2A Ki
T4 construct: purchased Invitrogen/Life Technologies
T4 sequence (Q9UQM7 whole entry): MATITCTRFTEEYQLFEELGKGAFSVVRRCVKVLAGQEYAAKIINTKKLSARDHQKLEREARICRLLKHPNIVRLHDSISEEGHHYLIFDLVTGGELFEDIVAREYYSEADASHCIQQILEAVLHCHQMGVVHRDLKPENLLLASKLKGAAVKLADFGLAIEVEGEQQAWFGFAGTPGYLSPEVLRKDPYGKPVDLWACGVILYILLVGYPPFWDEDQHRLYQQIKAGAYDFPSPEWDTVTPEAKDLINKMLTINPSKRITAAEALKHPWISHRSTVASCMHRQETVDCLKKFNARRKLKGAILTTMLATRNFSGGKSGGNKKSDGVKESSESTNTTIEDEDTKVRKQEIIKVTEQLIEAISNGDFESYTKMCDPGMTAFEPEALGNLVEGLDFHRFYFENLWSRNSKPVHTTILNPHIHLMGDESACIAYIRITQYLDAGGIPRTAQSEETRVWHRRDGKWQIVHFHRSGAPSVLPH

[6] = target: norepinephrine transporter (NET) (Homo sapiens, UniProt P23975); assay: NET inhibitory activity (data not shown)
Chain of norepinephrine transporter (NET) (P23975 whole entry, species assumed): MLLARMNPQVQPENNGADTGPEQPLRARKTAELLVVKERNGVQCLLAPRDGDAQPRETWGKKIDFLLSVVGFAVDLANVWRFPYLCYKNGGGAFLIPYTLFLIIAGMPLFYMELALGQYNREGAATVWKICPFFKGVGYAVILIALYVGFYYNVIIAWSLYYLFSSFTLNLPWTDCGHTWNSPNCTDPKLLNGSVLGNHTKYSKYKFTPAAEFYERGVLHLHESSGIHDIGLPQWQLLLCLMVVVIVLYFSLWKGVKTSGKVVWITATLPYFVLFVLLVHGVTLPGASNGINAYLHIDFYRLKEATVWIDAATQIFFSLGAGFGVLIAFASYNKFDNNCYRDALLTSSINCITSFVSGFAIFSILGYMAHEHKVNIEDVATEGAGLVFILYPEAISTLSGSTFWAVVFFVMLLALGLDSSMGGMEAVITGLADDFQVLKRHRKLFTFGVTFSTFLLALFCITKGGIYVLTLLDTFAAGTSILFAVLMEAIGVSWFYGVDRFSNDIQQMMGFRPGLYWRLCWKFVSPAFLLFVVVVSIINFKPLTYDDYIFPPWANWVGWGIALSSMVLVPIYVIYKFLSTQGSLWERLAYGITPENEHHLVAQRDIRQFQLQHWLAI

[7] = Absorption and distribution of radioactivity after single topical ocular dose; assay type: in vivo, Dutch Belted rabbits; details: for AUClast / Cmax / T1/2,e / Tmax: 14C-netarsudil 0.02% single topical ocular dose
Procedure: A single topical ocular dose of 0.02% ^14C-netarsudil mesylate (35 μL drop) was administered to both eyes of 3 male Dutch Belted rabbits in each of 7 groups. At 0.25, 0.5, 1, 4, 8, 24, and 48 h postdose, the following samples were harvested from each group: whole blood, derived plasma, AH, vitreous humor, cornea, conjunctiva, lens, iris/ciliary body, retina-choroid-plexus, liver, and kidneys. All samples were assayed for total radioactivity. A study of the same design was conducted for AR-12286, using a single topical ocular dose of 0.5% ^3H-AR-12286 (35 μL drop).

[8] = test system: normotensive Dutch Belted rabbits; assay: Ocular hypotensive activity (IOP) in rabbits
[9] = test system: normotensive Formosan Rock monkeys; assay: Ocular hypotensive activity (IOP) in monkeys; details: 0.5%, Day 3
[10] = Aqueous humor, L eye, radioactivity
[11] = Aqueous humor, R eye, radioactivity
[12] = Conjuctiva, L eye, radioactivity
[13] = Conjuctiva, R eye, radioactivity
[14] = Iris-ciliary body, L eye, radioactivity
[15] = Iris-ciliary body, R eye, radioactivity
[16] = Retina-choroid-plexus, L eye, radioactivity
[17] = Retina-choroid-plexus, R eye, radioactivity
[18] = Vitreous humor, L eye, radioactivity
[19] = Vitreous humor, R eye, radioactivity
[20] = male, Dutch Belted, rabbit, in vivo, topical or ocular

SMILES: CC(N)[C@H]1CC[C@H](C(=O)Nc2ccncc2)CC1 (stereo partly drawn) [Y27632, reference compound]
- IC50 [2]: 9970 nM
- IC50 [4]: 1740 nM

SMILES: CN(C)C(C(=O)Nc1ccc2c(=O)[nH]ccc2c1)c1ccsc1 (stereo not drawn) [AR-12286]
- Ki [1]: 9320 nM
- IC50 [2]: 924 nM
- Ki [3]: 28 nM
- IC50 [4]: 818 nM
- Ki [5]: 5850 nM
- IOP reduction ([8]; 0.5%, 8 h after dosing on Day 3): 2.9 ± 0.2 mmHg
- time of peak IOP-lowering efficacy after dosing ([8]; Day 1): 0.5 h
- T1/2,e values [7, 20]: 9 to 41 h
- Tmax in AH [7, 20]: 0.25 to 0.5 h
- terminal elimination half-life (T1/2,e) in AH [7, 20]: 9 to 11 h
- IOP reduction ([9]; 4 h after dosing): 5.6 ± 0.3 mmHg
- IOP reduction ([9]; 24 h after dosing): 3.9 ± 0.3 mmHg

SMILES: O=S(=O)(c1cccc2cnccc12)N1CCCNCC1 [Fasudil, reference compound]
- IC50 [2]: 10100 nM
- IC50 [4]: 3940 nM

More lines, main results first:

- Ki [1]: 27 nM
- fold greater activity against Rho kinase than netarsudil (ROCK1): 5 fold
- IC50 [2]: 22 nM
- Ki [3]: 7 nM
- IC50 [4]: 3 nM
- Ki [5]: 13700 nM
- NET inhibitory activity [6]: does not inhibit NET
SMILES: NC[C@@H](C(=O)Nc1ccc2cnccc2c1)c1ccc(CO)cc1 [Netarsudil-M1]
- increase in outflow facility relative to control eyes (human donor eyes): 59.7%
- increase in outflow facility (mouse eyes; C57 mice): 56%
- increase in outflow facility (mouse eyes; CD1 mice): 91%
- fold greater activity than netarsudil for disruption of actin stress fibers and focal adhesions ([2]; PTM and HTM cell-based assays): ~5 fold

- AUClast [7, 10]: 510 ng·eq·h/g
- Cmax [7, 10]: 16 ng·eq/g
- T1/2,e [7, 10]: 17 h
- Tmax [7, 10]: 8 h
- AUClast [7, 11]: 613 ng·eq·h/g
- Cmax [7, 11]: 23 ng·eq/g
- T1/2,e [7, 11]: 16 h
- Tmax [7, 11]: 8 h
- AUClast ([7]; Blood, radioactivity): 15 ng·eq·h/g
- Cmax ([7]; Blood, radioactivity): 1 ng·eq/g
- T1/2,e ([7]; Blood, radioactivity): 27 h
- Tmax ([7]; Blood, radioactivity): 0.25 h
- AUClast [7, 12]: 9,525 ng·eq·h/g
- Cmax [7, 12]: 2,442 ng·eq/g
- T1/2,e [7, 12]: 13 h
- Tmax [7, 12]: 0.25 h
- AUClast [7, 13]: 12,390 ng·eq·h/g
- Cmax [7, 13]: 3,292 ng·eq/g
- T1/2,e [7, 13]: 17 h
- Tmax [7, 13]: 0.25 h
- AUClast ([7]; Cornea, L eye, radioactivity): 63,387 ng·eq·h/g
- Cmax ([7]; Cornea, L eye, radioactivity): 3,666 ng·eq/g
- T1/2,e ([7]; Cornea, L eye, radioactivity): 14 h
- Tmax ([7]; Cornea, L eye, radioactivity): 0.5 h
- AUClast ([7]; Cornea, R eye, radioactivity): 69,605 ng·eq·h/g
- Cmax ([7]; Cornea, R eye, radioactivity): 3,972 ng·eq/g
- T1/2,e ([7]; Cornea, R eye, radioactivity): 13 h
- Tmax ([7]; Cornea, R eye, radioactivity): 0.25 h
- AUClast [7, 14]: 10,845 ng·eq·h/g
- Cmax [7, 14]: 955 ng·eq/g
- Tmax [7, 14]: 0.25 h
- AUClast [7, 15]: 11,555 ng·eq·h/g
- Cmax [7, 15]: 416 ng·eq/g
- T1/2,e [7, 15]: 112 h
- Tmax [7, 15]: 8 h
- AUClast ([7]; Kidney, radioactivity): 298 ng·eq·h/g
- Cmax ([7]; Kidney, radioactivity): 19 ng·eq/g
- T1/2,e ([7]; Kidney, radioactivity): 16 h
- Tmax ([7]; Kidney, radioactivity): 1 h
- AUClast ([7]; Lens, L eye, radioactivity): 33 ng·eq·h/g
- Cmax ([7]; Lens, L eye, radioactivity): 2 ng·eq/g
- T1/2,e ([7]; Lens, L eye, radioactivity): 99 h
- Tmax ([7]; Lens, L eye, radioactivity): 0.25 h
- AUClast ([7]; Lens, R eye, radioactivity): 37 ng·eq·h/g
- Cmax ([7]; Lens, R eye, radioactivity): 2 ng·eq/g
- T1/2,e ([7]; Lens, R eye, radioactivity): 83 h
- Tmax ([7]; Lens, R eye, radioactivity): 0.25 h
- AUClast ([7]; Liver, radioactivity): 88 ng·eq·h/g
- Cmax ([7]; Liver, radioactivity): 6 ng·eq/g
- T1/2,e ([7]; Liver, radioactivity): 13 h
- Tmax ([7]; Liver, radioactivity): 1 h
- AUClast ([7]; Plasma, radioactivity): 24 ng·eq·h/g
- Cmax ([7]; Plasma, radioactivity): 1 ng·eq/g
- T1/2,e ([7]; Plasma, radioactivity): 16 h
- Tmax ([7]; Plasma, radioactivity): 0.5 h
- AUClast [7, 16]: 1,390 ng·eq·h/g
- Cmax [7, 16]: 80 ng·eq/g
- T1/2,e [7, 16]: 204 h
- Tmax [7, 16]: 0.25 h
- AUClast [7, 17]: 1,298 ng·eq·h/g
- Cmax [7, 17]: 50 ng·eq/g
- T1/2,e [7, 17]: 68 h
- Tmax [7, 17]: 0.5 h
- AUClast [7, 18]: 51 ng·eq·h/g
- Cmax [7, 18]: 7 ng·eq/g
- T1/2,e [7, 18]: 12 h
- Tmax [7, 18]: 0.25 h
- AUClast [7, 19]: 51 ng·eq·h/g
- Cmax [7, 19]: 4 ng·eq/g
- T1/2,e [7, 19]: 15 h
- Tmax [7, 19]: 0.25 h
- Tmax in AH ([7]; netarsudil 0.02% single topical ocular dose, radioactivity): 8 h
SMILES: Cc1ccc(C(=O)OCc2ccc([C@@H]([14CH2]N)C(=O)Nc3ccc4cnccc4c3)cc2)c(C)c1 [^14C-Netarsudil]
